Results reported in publication PMC5045942, “Evaluation of a novel PXR‐knockout in HepaRG™ cells” (Pharmacology Research & Perspectives, 2016).
Several values for one entry are separate records, joined by “and”; a condition that tells them apart may be missing. Identical values can stand only once. Like-named read-outs stand apart in the source and are kept apart here.

Columns and labels:
CYP2B6 mRNA [1] = experiment: CYP2B6 mRNA induction in 5F HepaRG control cells (real-time PCR); assay type: in vitro ADME, human; details: for E max, induction of CYP2B6 mRNA, 5F / EC50 / EC50 at 48 h: 5F cells; for EC50 at 48 h: human
Method: (§1) 5F, CAR‐KO, and PXR‐KO HepaRG cells were thawed in recovery medium and plated into 96‐well collagen‐1‐coated plates at a volume of 200 μL/well. The cells were incubated at 37°C in a humidified incubator with 5% CO2 for 48 h. The recovery medium was replaced with maintenance medium and procedure repeated every Monday, Wednesday, and Friday for 18 days. On day 18, the maintenance medium was replaced with pre‐incubation medium for 72 h. On day 21, the cells were incubated with test compounds in serum‐free induction medium for 48 h. Test compounds were freshly dissolved in DMSO and then serum‐free induction medium to achieve a final DMSO concentration of 0.1% every 24 h. For enzyme induction assays, cells were thawed into recovery medium and plated into 24‐well plates at a volume of 1 mL/well. Culture conditions were as described above.
(§2) mRNA was extracted from the cell monolayers using the SV96 total RNA isolation system according to the manufacturer's instructions. Reverse transcription of mRNA to cDNA was completed using Taqman reverse transcription (RT) assay. […] An Agilent Mx3005P thermocycler was used to run a thermal cycle of: 10 min at 25°C, 30 min at 37°C, 5 min at 95°C, and a hold phase at 4°C.
(§3) An Agilent Mx3005P thermocycler was used to determine the gene expression of selected genes. Real‐time PCR solutions were prepared as described by the manufacturer. Each reaction contained 12.5 μL volume. […] PCR conditions were 15 min at 95°C (to activate polymerase, denature cDNA, and initiate PCR) followed by 40 cycles of 15 sec at 94°C (denaturation), and 60 sec at 60°C (annealing/extension of the product). Fluorescence was measured at the end of each cycle.
(§4) Gene expression data were compared to an average of GAPDH and normalized to the control sample using the comparative threshold cycle (C(t)) method (Ct = 2^−∆∆C(t)). […] Where possible data were fitted to a sigmoidal E max model (WinNonLin Phoenix, Pharsight, 6.3.0.395). All human hepatocyte data are the average of duplicate experiments and three compound concentrations. HepaRG WT are the average of triplicate experiments completed in duplicate. HepaRG 5F and HepaRG PXR‐KO data are the average of duplicate experiments and duplicate replicates of each compound concentration (six concentrations).

CYP2B6 mRNA [2] = experiment: CYP2B6 mRNA induction in HepaRG wild-type cells (real-time PCR); assay type: in vitro ADME, human; details: for E max, induction of CYP2B6 mRNA, HepaRG: E max ± SD; for EC50: human, EC50 ± SD
Method: (§5) HepaRG cells were thawed in thawing and maintenance medium and plated into 96‐well collagen‐1‐coated plates at a volume of 200 μL/well. The cells were incubated at 37°C in a humidified incubator with 5% CO2 for 72 h. Test compounds were freshly dissolved in DMSO and then serum‐free induction medium to achieve a final DMSO concentration of 0.1% every 24 h.
as §2, §3, §4

CYP2B6 mRNA [3] = experiment: CYP2B6 mRNA induction in PXR-KO HepaRG cells (real-time PCR); assay type: in vitro ADME, human; details: for EC50 for CYP2B6 in PXR-KO cells in comparison to other cell types (in words): PXR-KO vs 5F cells / other cell types; for E max for CYP2B6 in PXR-KO cells in comparison to other cell types (in words): PXR-KO vs 5F, HepaRG WT cells and PHHs; for EC50 at 48 h: human
Method: as §1, §2, §3, §4

CYP3A4 mRNA [4] = experiment: CYP3A4 mRNA induction in PXR-KO HepaRG cells (real-time PCR)
Method: as §1, §2, §3, §4

CYP3A4 mRNA [5] = experiment: CYP3A4 mRNA induction in HepaRG wild-type cells (real-time PCR); details: for E max, induction of CYP3A4 mRNA, HepaRG: E max ± SD; for EC50: human
Method: as §5, §2, §3, §4

CYP3A4 mRNA [6] = experiment: CYP3A4 mRNA induction in 5F HepaRG control cells (real-time PCR); details: for EC50 at 48 h: human, 5F HepaRG control cells
Method: as §1, §2, §3, §4

CYP2B6 = CYP2B6 enzyme activity induction (bupropion, LC-MS/MS) in PXR-KO and 5F cells; assay type: in vitro ADME, human; details: 1.5 μmol/L CITCO, 258 μmol/L phenobarbital; bupropion 100 μmol/L, 2 h; PXR-KO vs 5F cells (Fig. 3)
Method: Culture conditions were as described above.
P450 enzyme activity was assessed by incubating whole‐cell monolayers for 2 h at 37°C using 100 μmol/L bupropion (CYP2B6) in unsupplemented Williams E media with a final concentration of 0.1% DMSO. Reactions were quenched by removing supernatants and diluting 1:2 into ice‐cold acetonitrile. Samples were stored at −20°C until LC‐MS/MS analysis was completed.
LC‐MS/MS analysis utilized an API‐4000 Q Trap mass spectrometer with a Turbo V atmospheric pressure electrospray ionization source (AB SCIEX, Framingham, MA). Samples (40 μL) were injected onto a Fortis C18 column (3 × 50 mm, 5 μm) and eluted by a mobile phase gradient specific for each test article (mobile phase A: 0.1% formic acid in water; mobile phase B: 0.1% formic acid in acetonitrile). Flow rate was 0.5 mL/min. MS conditions: positive or negative ionization mode (4.5 kV spray voltage); source temperature of 450°C with multiple reaction monitoring specific for each analyte and internal standard parent–product ion pairs. Peak areas of analyte and internal standard and resulting ratios were quantified using Analyst 1.5.2 (AB SCIEX, Framingham, MA).

CYP2B6 mRNA [7] = experiment: in vitro; details: human
Method: (§6) Cryopreserved male human hepatocytes were thawed in CHRM and plated into a 96‐well collagen‐1‐coated plate at a density of 7.5 × 10^4 viable cells in 200 μL of CHPM. Trypan blue exclusion was used to determine cell viability with a cut‐off of 85% viability. The cells were incubated at 37°C in a humidified incubator with 5% CO2. Plating medium was replaced with maintenance medium following 4 h incubation and then maintained overnight before 48 h treatment with test compound. Test compounds were freshly dissolved in dimethyl sulfoxide (DMSO) and then culture medium to achieve a final DMSO concentration of 0.1%. A vehicle control of medium with 0.1% DMSO was included in all studies.
as §2, §3
(§7) Gene expression data were compared to an average of GAPDH and normalized to the control sample using the comparative threshold cycle (C(t)) method (Ct = 2^−∆∆C(t)). […] Where possible data were fitted to a sigmoidal E max model (WinNonLin Phoenix, Pharsight, 6.3.0.395). All human hepatocyte data are the average of duplicate experiments and three compound concentrations.

CYP3A4 mRNA [8] = experiment: CYP3A4 mRNA induction in cryopreserved primary human hepatocytes (real-time PCR); details: for EC50 at 48 h: human, cryopreserved primary human hepatocytes
Method: (§8) The cells were incubated at 37°C in a humidified incubator with 5% CO2. Plating medium was replaced with maintenance medium following 4 h incubation and then maintained overnight before 48 h treatment with test compound. Test compounds were freshly dissolved in dimethyl sulfoxide (DMSO) and then culture medium to achieve a final DMSO concentration of 0.1%. A vehicle control of medium with 0.1% DMSO was included in all studies.
as §2, §3, §7

CYP2B6 mRNA [9] = experiment: CYP2B6 mRNA induction in cryopreserved primary human hepatocytes (real-time PCR); details: 48 h; for E max, induction of CYP2B6 mRNA, primary human hepatocyte donor D1: NE = no effect observed, relative gene expression fold change <2; for E max, induction of CYP2B6 mRNA, primary human hepatocyte donor D3: donor D3 (Hu8132)
Method: as §6, §2, §3, §7

CYP3A4 mRNA [10] = details: human
Method: as §1, §2, §3, §4

CYP3A4 mRNA [11] = details: human; remark: listed apart in the source
Method: as §5, §2, §3, §4

CYP3A4 mRNA [12] = tested on: CYP3A4 mRNA
Method: as §8, §2, §3, §7

CYP3A4 mRNA [13] = tested on: CYP3A4 mRNA; remark: listed apart in the source
Method: as §1, §2, §3, §4

CYP3A4 mRNA [14] = experiment: in vitro; details: human, EC50, induction of CYP3A4 mRNA, 5F
Method: as §1, §2, §3, §4

CYP3A4 mRNA [15] = experiment: in vitro; details: human, EC50, induction of CYP3A4 mRNA
Method: as §8, §2, §3, §7

[16] = 48 h, value of each individual experiment (two per cell)
[17] = PXR-KO vs 5F, HepaRG WT cells and PHHs
[18] = 5F cells, 48 h, value of each individual experiment (two per cell)
[19] = EC50, induction of CYP3A4 mRNA, 5F, 5F cells, 48 h, value of each individual experiment (two per cell)

NC(=O)N1c2ccccc2C=Cc2ccccc21 [Carbamazepine, carbamazepine]
E max, induction of CYP2B6 mRNA, 5F (CYP2B6 mRNA [1]; [16]): 3.1 and 7.4 | EC50 (CYP2B6 mRNA [1]; [16]): 5.4 µM | EC50 at 48 h (CYP2B6 mRNA [1]; 5F HepaRG control cells, 48 h, value of each individual experiment (two per cell), read-out: EC50, induction of CYP2B6 mRNA, 5F): 8.4 µM | E max, induction of CYP2B6 mRNA, HepaRG (CYP2B6 mRNA [2]): 10.7 ± 4.3 | EC50 (CYP2B6 mRNA [2]): 12 ± 7.3 µM | EC50 for CYP2B6 in PXR-KO cells in comparison to other cell types (in words) (CYP2B6 mRNA [3]): increased | E max for CYP2B6 in PXR-KO cells in comparison to other cell types (in words) (CYP2B6 mRNA [3]): lower | E max for CYP3A4 in PXR-KO cells in comparison to other cell types (in words) (CYP3A4 mRNA [4]; [17]): ~four‐fold lower | EC50 for CYP3A4 in PXR-KO cells in comparison to other cell types (in words) (CYP3A4 mRNA [4]; [17]): similar | EC50 at 48 h (CYP3A4 mRNA [4]; human, PXR-KO HepaRG cells): 49 µM | E max, induction of CYP3A4 mRNA, HepaRG (CYP3A4 mRNA [5]): 33.5 ± 12.6 | EC50 (CYP3A4 mRNA [5]): 24 ± 12.2 µM | E max, induction of CYP3A4 mRNA, 5F (CYP3A4 mRNA [6]; [18]): 29.3 and 21.6 | EC50 at 48 h (CYP3A4 mRNA [6]; [19]): 37.4 µM | EC50 at 48 h (CYP3A4 mRNA [6]; EC50 of CYP3A4 induction in 5F cells, single value given in text, data the average of two experiments): 38 µM

Clc1ccc(-c2nc3sccn3c2C=NOCc2ccc(Cl)c(Cl)c2)cc1 [CITCO, 6‐(4‐chlorophenyl)imidazo[2,1‐b][1,3]thiazole‐5‐carbaldehyde O‐(3,4‐dichlorobenzyl)oxime]
CYP2B6 induction response in 5F cells (in words) (CYP2B6 mRNA [1]): responsive | E max, induction of CYP2B6 mRNA, 5F (CYP2B6 mRNA [1]; [16]): 17.0 and 22.5 | EC50 (CYP2B6 mRNA [1]; [16]): 1 µM | EC50 at 48 h (CYP2B6 mRNA [1]; 5F HepaRG control cells, single value given in text, data the average of two experiments, read-out: EC50 of CYP2B6 induction in 5F cells): 0.5 µM | E max, induction of CYP2B6 mRNA, HepaRG (CYP2B6 mRNA [2]): 14.2 ± 7.4 | EC50 (CYP2B6 mRNA [2]): 0.03 ± 0.01 µM | E max for CYP2B6 in PXR-KO cells in comparison to other cell types (in words) (CYP2B6 mRNA [3]): similar | EC50 at 48 h (CYP2B6 mRNA [3]; PXR-KO HepaRG cells, 48 h): 0.3 µM | CYP2B6-induced activity response (CYP2B6): greater in the PXR‐KO cells | EC50 at 48 h (CYP2B6 mRNA [7]; cryopreserved primary human hepatocytes, donor D1 (Hu1455)): 200 nM | EC50 at 48 h (CYP2B6 mRNA [7]; cryopreserved primary human hepatocytes, donor D3 (Hu8132)): 300 nM | CYP3A4 induction response in PXR-KO cells (in words) (CYP3A4 mRNA [4]; PXR-KO HepaRG cells, compared with 5F cells): maintained | E max, induction of CYP3A4 mRNA, HepaRG (CYP3A4 mRNA [5]): 21.1 ± 4.6 | EC50 (CYP3A4 mRNA [5]): 1.5 ± 0.1 µM | E max, induction of CYP3A4 mRNA, 5F (CYP3A4 mRNA [6]; [18]): 6.4 and 7.1 | EC50 at 48 h (CYP3A4 mRNA [6]; [19]): 1.9 µM | EC50 (CYP3A4 mRNA [6]; read-out: EC50, induction of CYP3A4 mRNA, 5F, 5F cells, 48 h, value of each individual experiment (two per cell)): 2000 nM | E max, induction of CYP3A4 mRNA, primary human hepatocyte donor D1 (CYP3A4 mRNA [8]; donor D1 (Hu1455), 48 h): 3.5 | E max, induction of CYP3A4 mRNA, primary human hepatocyte donor D3 (CYP3A4 mRNA [8]; donor D3 (Hu8132), 48 h): 2.3 | EC50 at 48 h (CYP3A4 mRNA [8]; donor D1 (Hu1455)): 300 nM | EC50 at 48 h (CYP3A4 mRNA [8]; donor D3 (Hu8132)): 400 nM | E max, induction of CYP2B6 mRNA, primary human hepatocyte donor D1 (CYP2B6 mRNA [9]; donor D1 (Hu1455)): 6.0 | E max, induction of CYP2B6 mRNA, primary human hepatocyte donor D3 (CYP2B6 mRNA [9]): 5.5

CCC1(c2ccccc2)C(=O)NC(=O)NC1=O [Phenobarbital, phenobarbital]
E max, induction of CYP2B6 mRNA, 5F (CYP2B6 mRNA [1]; [16]): 5.9 and 5.5 | EC50 (CYP2B6 mRNA [1]; [16]): 195 µM | EC50 at 48 h (CYP2B6 mRNA [1]; 48 h, value of each individual experiment (two per cell), read-out: EC50, induction of CYP2B6 mRNA, 5F): 145 µM | E max, induction of CYP2B6 mRNA, HepaRG (CYP2B6 mRNA [2]): 68.9 ± 47.3 | EC50 (CYP2B6 mRNA [2]): 170 ± 6.8 µM | E max of CYP2B6 induction in PXR-KO cells (CYP2B6 mRNA [3]; PXR-KO HepaRG cells, 48 h): 11.8 | EC50 for CYP2B6 in PXR-KO cells in comparison to other cell types (in words) (CYP2B6 mRNA [3]): in agreement between the cell lines | EC50 at 48 h (CYP2B6 mRNA [3]; PXR-KO HepaRG cells, 48 h): 98 µM | CYP2B6-induced activity response (CYP2B6): greater in the PXR‐KO cells | E max, induction of CYP3A4 mRNA, 5F (CYP3A4 mRNA [10]): 17.3, 28.1 | EC50 (CYP3A4 mRNA [10]): 166 µM | E max, induction of CYP3A4 mRNA, HepaRG (CYP3A4 mRNA [11]): 110.0 ± 12.8 | E max, induction of CYP3A4 mRNA, primary human hepatocyte donor D2 (CYP3A4 mRNA [12]; hepatocytes): 13.3 | E max, induction of CYP3A4 mRNA, primary human hepatocyte donor D3 (CYP3A4 mRNA [12]; hepatocytes): 81.8 | EC50 (CYP3A4 mRNA [12]; male, human): 251 µM | CYP3A4 induction response in PXR-KO cells (in words) (CYP3A4 mRNA [13]): much reduced | E max of CYP3A4 induction in PXR-KO cells (CYP3A4 mRNA [13]; human): 3.3 | EC50 (CYP3A4 mRNA [14]): 108 µM | EC50 (CYP3A4 mRNA [15]; primary human hepatocyte donor D1): 250 µM | EC50 (CYP3A4 mRNA [15]; primary human hepatocyte donor D2): 366 µM | EC50 (CYP3A4 mRNA [15]; primary human hepatocyte donor D3): 177 µM | EC50 at 48 h (CYP2B6 mRNA [7]; male): 186000 nM | E max, induction of CYP2B6 mRNA, primary human hepatocyte donor D1 (CYP2B6 mRNA [9]; donor D1 (Hu1455)): 20.2 | E max, induction of CYP2B6 mRNA, primary human hepatocyte donor D3 (CYP2B6 mRNA [9]): 26.3 | EC50 (CYP2B6 mRNA [9]; read-out: EC50, induction of CYP2B6 mRNA, primary human hepatocyte donor D1, donor D1 (Hu1455)): 98.9 µM
